Reference: article PMC8802806, “Synthesis and Antitumor Activity of Erlotinib Derivatives Linked With 1,2,3-Triazole” (Frontiers in Pharmacology, 2022)
Several values for one entry are separate records, joined by “and”; a condition that tells them apart may be missing. Identical values can stand only once. Like-named read-outs stand apart in the source and are kept apart here.

Assays:
HeLa cells [1] = experiment: Flow cytometry detection for cell apoptosis (Annexin V/PI); format: cell-based, human; details: for Q1 (flow cytometry quadrant, Figure 4A) / Q4 (flow cytometry quadrant, Figure 4A) / Q2: FITC-A+ , PE-A+ Freq. of Parent / Q3: FITC-A+ , PE-A- Freq. of Parent: Annexin V/PI; for Q2: FITC-A+ , PE-A+ Freq. of Parent / Q3: FITC-A+ , PE-A- Freq. of Parent / Q2+Q3 (column without head, sum on percent scale): single samples
Description: Cell-apoptosis analysis was carried out by flow cytometry using the Annexin V/PI apoptosis kit (Solarbio, China) according to the manufacturer’s manual. Briefly, HeLa (5 × 10^4/well) cells were seeded in 12-well plates for 24 h and then treated with 0.1% DMSO (as control) or various concentrations of compounds 4d, 4k, and 4l for 72 h, respectively. Cells were harvested, washed with PBS, and then incubated with 100 μl of 1 × Annexin V binding buffer containing 1 μl FITC Annexin V for 10 min at RT in the dark. Cells were incubated for another 5 min at room temperature (RT) in the dark after 1 μl PI was added. PBS (200 µl) was added to each tube for flow cytometry analysis (BriCyte E6). The percentages of apoptotic cells were analyzed using FlowJo soft.

HeLa cells [2] = experiment: Cell antiproliferative activity assay (CCK8); format: cell-based, human; details: for inhibition at 0.25 µM: 250 nM; for inhibition at 0.5 µM: 500 nM; for inhibition at 1 µM: 1000 nM; for inhibition at 2 µM: 2000 nM; for inhibition at 4 µM: 4000 nM; for inhibition at 8 µM: 8000 nM; for inhibition at 16 µM: 16000 nM
Description: Cell antiproliferative activity was evaluated by the Cell Counting Kit-8 (CCK8, DOJINDO, Japan) assay. The cells were seeded at a density of 2,000 cells per well into 96-well microplate in 100 μl of growth medium. Cells were incubated at 37°C and 5% CO2 overnight. The next day, 100 μl per well of diluted inhibitor in growth medium was added with the final concentration from 0.1 nM to 100 μM. The cells were treated with DMSO as control. A series of dilutions are made in 0.1% DMSO in assay medium so that the final concentration of DMSO is 0.1% in all of treatments. Cells were incubated at 37°C and 5% CO2 for 48 h. Then, 10 μl of CCK8 was added to each well. The plates were incubated at 37°C for 2 h; after that, the plates were recorded by measuring absorbance at 450 nm with the reference wavelength of 630 nm using an EnVision Multilabel Reader (PerkinElmer). The IC50 values were calculated using GraphPad Prism 6.0 software and determined by the concentration causing a half-maximal percent activity. All assays were conducted with three parallel samples and three repetitions.

HeLa cells [3] = experiment: Flow cytometry detection for cell cycle; format: cell-based, human; details: 6 μM, 48 h
Description: HeLa (5 × 10^4/well) cells were seeded in 12-well plates for 24 h and then treated with 0.1% DMSO (as control), compounds 4d, 4k, and 4l of various concentrations for 48 h, respectively. The treated cells were harvested, washed with PBS, and then stained using the cell-cycle staining kit [Multisciences (Lianke) Biotech] according to the manufacturer’s manual. The distribution of cell-cycle phases with different DNA contents was determined by flow cytometry (BriCyte E6) and analyzed using ModFit LT software.

HeLa cells [4] = experiment: Colony formation assay; format: cell-based, human
Description: HeLa cells were seeded in six-well plates at the density of 500/well for 24 h, and then treated with 0.1% DMSO (as control), various concentrations of compounds 4d, 4k, and 4l, respectively. The cells were incubated for 2 weeks in a 5% CO2 environment at 37°C for colony formation. The media was gently removed from each of the plates, and then each plate was washed with PBS twice. The colonies were fixed with 4% polyformaldehyde for 10 min and then wash the cells with ddH2O twice. Stain with 1 ml Crystal Violet Staining Solution (Beyotime, China) for 10 min. Wash excess crystal violet with ddH2O and allow dishes to dry. Take pictures of the plate and count the colonies.

[5] = HeLa cells, CCK8, 48 h, mean ± SD, n = 3, read-out: IC50 (μM) HeLa
[6] = Homo sapiens, HeLa, 48 h, HeLa cells, CCK8, 48 h, mean ± SD, n = 3, read-out: IC50 (μM) HeLa
[7] = Homo sapiens, HeLa, HELA 2000cells/well, supplement DataSheet2, Repeat1, read-out: IC50 Repeat1
[8] = Homo sapiens, HeLa, HELA 2000cells/well, supplement DataSheet2, Repeat 2, read-out: IC50 Repeat 2
[9] = Homo sapiens, HeLa, HELA 2000cells/well, supplement DataSheet2, mean of two repeats ± SD, read-out: IC50 mean±SD
[10] = Homo sapiens, HELA 2000cells/well, Repeat1, read-out: Inhibition (%) Repeat1
[11] = Homo sapiens, HELA 2000cells/well, Repeat2, read-out: Inhibition (%) Repeat2

COCCOc1cc2ncnc(Nc3cccc(-c4cn(-c5ccccc5OC)nn4)c3)c2cc1OCCOC [Compound 4k, [6,7-Bis-(2-methoxy-ethoxy)-quinazolin-4-yl]-{3-[1-(2-methoxy-phenyl)-1H-[1,2,3]triazol-4-yl]-phenyl}-amine]
Q1 (flow cytometry quadrant, Figure 4A) (HeLa cells [1]; 3 μM, 72 h): 2.64% | Q4 (flow cytometry quadrant, Figure 4A) (HeLa cells [1]; 3 μM, 72 h): 93.0% | Q2: FITC-A+ , PE-A+ Freq. of Parent (HeLa cells [1]; 3 μM, 72 h): 3.63% | Q3: FITC-A+ , PE-A- Freq. of Parent (HeLa cells [1]; 3 μM, 72 h): 0.75% | Q1 (flow cytometry quadrant, Figure 4A) (HeLa cells [1]; 6 μM, 72 h): 8.66% | Q4 (flow cytometry quadrant, Figure 4A) (HeLa cells [1]; 6 μM, 72 h): 64.2% | Q2: FITC-A+ , PE-A+ Freq. of Parent (HeLa cells [1]; 6 μM, 72 h): 21.9% | Q3: FITC-A+ , PE-A- Freq. of Parent (HeLa cells [1]; 6 μM, 72 h): 5.30% | Q1 (flow cytometry quadrant, Figure 4A) (HeLa cells [1]; 12 μM, 72 h): 24.0% | Q4 (flow cytometry quadrant, Figure 4A) (HeLa cells [1]; 12 μM, 72 h): 11.6% | Q2: FITC-A+ , PE-A+ Freq. of Parent (HeLa cells [1]; 12 μM, 72 h): 61.9% | Q3: FITC-A+ , PE-A- Freq. of Parent (HeLa cells [1]; 12 μM, 72 h): 2.53% | IC50 (HeLa cells [2]; [5]): 4.16 ± 0.48 µM | IC50 (HeLa cells [2]; [6]): 3.79 µM | IC50 (HeLa cells [2]; [7]): 3.72 µM | IC50 (HeLa cells [2]; [8]): 4.68 µM | IC50 (HeLa cells [2]; [9]): 4.16 ± 0.481 µM | inhibition at 0.25 µM (HeLa cells [2]; [10]): 3.39% | inhibition at 0.25 µM (HeLa cells [2]; [11]): 0% | inhibition at 0.5 µM (HeLa cells [2]; [10]): 4.2% | inhibition at 0.5 µM (HeLa cells [2]; [11]): 6.96% | inhibition at 1 µM (HeLa cells [2]; [10]): 8.3% | inhibition at 1 µM (HeLa cells [2]; [11]): 7.05% | inhibition at 2 µM (HeLa cells [2]; [10]): 22.3% | inhibition at 2 µM (HeLa cells [2]; [11]): 10.7% | inhibition at 4 µM (HeLa cells [2]; [10]): 48.8% | inhibition at 4 µM (HeLa cells [2]; [11]): 43.1% | inhibition at 8 µM (HeLa cells [2]; [10]): 90.1% | inhibition at 8 µM (HeLa cells [2]; [11]): 73.9% | inhibition at 16 µM (HeLa cells [2]; [10]): 96.8% | inhibition at 16 µM (HeLa cells [2]; [11]): 97% | cell cycle phase at which HeLa cells were arrested (HeLa cells [3]): both G0/G1 and G2/M | melting point: 87 to 90 °C

COCCOc1cc2ncnc(Nc3cccc(-c4cn(-c5ccc(C)cc5)nn4)c3)c2cc1OCCOC [Compound 4l, [6,7-Bis-(2-methoxy-ethoxy)-quinazolin-4-yl]-[3-(1-p-tolyl-1H-[1,2,3]triazol-4-yl)-phenyl]-amine]
Q1 (flow cytometry quadrant, Figure 4A) (HeLa cells [1]; 3 μM, 72 h): 3.78% | Q4 (flow cytometry quadrant, Figure 4A) (HeLa cells [1]; 3 μM, 72 h): 84.8% | Q2: FITC-A+ , PE-A+ Freq. of Parent (HeLa cells [1]; 3 μM, 72 h): 9.69% | Q3: FITC-A+ , PE-A- Freq. of Parent (HeLa cells [1]; 3 μM, 72 h): 1.71% | Q2: FITC-A+ , PE-A+ Freq. of Parent (HeLa cells [1]; 3 μM, 72 h, listed as e12): 9.69% and 6.86% and 8.36% | Q3: FITC-A+ , PE-A- Freq. of Parent (HeLa cells [1]; 3 μM, 72 h, listed as e12): 1.71% and 1.25% and 0.95% | Q2+Q3 (column without head, sum on percent scale) (HeLa cells [1]; 3 μM, listed as e12): 11.4 and 8.11 and 9.31 | Q1 (flow cytometry quadrant, Figure 4A) (HeLa cells [1]; 6 μM, 72 h): 3.76% | Q4 (flow cytometry quadrant, Figure 4A) (HeLa cells [1]; 6 μM, 72 h): 83.5% | Q2: FITC-A+ , PE-A+ Freq. of Parent (HeLa cells [1]; 6 μM, 72 h): 11.1% | Q3: FITC-A+ , PE-A- Freq. of Parent (HeLa cells [1]; 6 μM, 72 h): 1.72% | Q2: FITC-A+ , PE-A+ Freq. of Parent (HeLa cells [1]; 6 μM, 72 h, listed as e12): 8.62% and 11.1% and 7.43% | Q3: FITC-A+ , PE-A- Freq. of Parent (HeLa cells [1]; 6 μM, 72 h, listed as e12): 1.73% and 1.72% and 1.32% | Q2+Q3 (column without head, sum on percent scale) (HeLa cells [1]; 6 μM, listed as e12): 10.35 and 12.82 and 8.75 | Q1 (flow cytometry quadrant, Figure 4A) (HeLa cells [1]; 12 μM, 72 h): 4.50% | Q4 (flow cytometry quadrant, Figure 4A) (HeLa cells [1]; 12 μM, 72 h): 78.5% | Q2: FITC-A+ , PE-A+ Freq. of Parent (HeLa cells [1]; 12 μM, 72 h): 14.1% | Q3: FITC-A+ , PE-A- Freq. of Parent (HeLa cells [1]; 12 μM, 72 h): 2.91% | Q2: FITC-A+ , PE-A+ Freq. of Parent (HeLa cells [1]; 12 μM, 72 h, listed as e12): 14.8% and 14.1% and 12.5% | Q3: FITC-A+ , PE-A- Freq. of Parent (HeLa cells [1]; 12 μM, 72 h, listed as e12): 2.43% and 2.91% and 2.33% | cell apoptosis in HeLa cells, percentage (HeLa cells [1]; 12 μM, 72 h, three independent experiments): 16.36% | Q2+Q3 (column without head, sum on percent scale) (HeLa cells [1]; 12 μM, listed as e12): 17.23 and 17.01 and 14.83 | IC50 (HeLa cells [2]; [5]): 4.51 ± 0.08 µM | IC50 (HeLa cells [2]; [6]): 4.36 µM | IC50 (HeLa cells [2]; [7]): 4.41 µM | IC50 (HeLa cells [2]; [8]): 4.58 µM | IC50 (HeLa cells [2]; [9]): 4.51 ± 0.083 µM | inhibition at 0.25 µM (HeLa cells [2]; [10]): 2.96% | inhibition at 0.25 µM (HeLa cells [2]; [11]): 0% | inhibition at 0.5 µM (HeLa cells [2]; [10]): 5.57% | inhibition at 0.5 µM (HeLa cells [2]; [11]): 0.522% | inhibition at 1 µM (HeLa cells [2]; [10]): 8.62% | inhibition at 1 µM (HeLa cells [2]; [11]): 4.7% | inhibition at 2 µM (HeLa cells [2]; [10]): 12.6% | inhibition at 2 µM (HeLa cells [2]; [11]): 6.88% | inhibition at 4 µM (HeLa cells [2]; [10]): 37.2% | inhibition at 4 µM (HeLa cells [2]; [11]): 32% | inhibition at 8 µM (HeLa cells [2]; [10]): 96.7% | inhibition at 8 µM (HeLa cells [2]; [11]): 96.9% | inhibition at 16 µM (HeLa cells [2]; [10]): 99% | inhibition at 16 µM (HeLa cells [2]; [11]): 98.9% | Number of Colonies /well (HeLa cells [4]; 6 uM, repeats 1-3): 291 and 246 and 217 | effect on cell colony formation (HeLa cells [4]; 12 μM, 2 weeks): entirely inhibited | melting point: 95 to 98 °C
